Assay results: ChEMBL document CHEMBL1201862, “PubChem BioAssay data set” (2004)
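Dose response: 5 concentrations. Exposure: 48 h. Format: 96-well plates. Endpoint: linear interpolation; highest concentration if not reached. GI50 marks 50% less growth.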 Activity calls are given as the source filed them. Rule as the data show it: active = GI50 up to about 1.1 µM and inactive = higher.

Legend:
Test in all cases: inhibition of tumour cell growth, NCI panel, 48 h
HL-60 = system: HL-60
HOP-92 = system: HOP-92
SW-620 = system: SW-620
LOX IMVI = system: LOX IMVI
SNB-75 = system: SNB-75
SN12C = system: SN12C
HT-29 = system: HT-29
MOLT-4 = system: MOLT-4
SF-295 = system: SF-295
HOP-62 = system: HOP-62
M14 = system: M14
T47D = system: T47D
IGROV-1 = system: IGROV-1
U-251 = system: U-251
SR = system: SR
EKVX = system: EKVX
A549 = system: A549
TK-10 = system: TK-10
HCT-15 = system: HCT-15
MDA-MB-435 = system: MDA-MB-435

| Structure (SMILES) | GI50 (HL-60) | GI50 (HOP-92) | GI50 (SW-620) | GI50 (LOX IMVI) | GI50 (SNB-75) | GI50 (SN12C) | GI50 (HT-29) | GI50 (MOLT-4) | GI50 (SF-295) | GI50 (HOP-62) | GI50 (M14) | GI50 (T47D) | GI50 (IGROV-1) | GI50 (U-251) | GI50 (SR) | GI50 (EKVX) | GI50 (A549) | GI50 (TK-10) | GI50 (HCT-15) [µM] | GI50 (MDA-MB-435) |
| --- | --- | --- | --- | --- | --- | --- | --- | --- | --- | --- | --- | --- | --- | --- | --- | --- | --- | --- | --- | --- |
| COC(=O)c1c2c(c3[nH]c4ccccc4c3c1C(=O)OC)C(=O)C1=C(C2=O)C2(Cl)C(Cl)C(Cl)C1(Cl)C2(Cl)Cl (stereo not given) | 2.29 µM (inactive) | 1.77 µM (inactive) | 0.353 µM (active) | 1.85 µM (inactive) | 2.39 µM (inactive) | 1.94 µM (inactive) | 2.55 µM (inactive) | 1.17 µM (inactive) | 3.63 µM (inactive) | 3.76 µM (inactive) | 1.46 µM (inactive) | 1.35 µM (inactive) | 2.69 µM (inactive) | 2.42 µM (inactive) | 0.489 µM (active) | 3.92 µM (inactive) | 3.21 µM (inactive) | 3.56 µM (inactive) | 1.48 | 1.07 µM (active) |
| COC1CC(C)(NC(=O)C(F)(F)F)C2OC(c3ccccc3)OCC2O1 (stereo not given) | > 100 µM (inactive) | > 100 µM (inactive) | > 100 µM (inactive) | > 100 µM (inactive) | > 100 µM (inactive) | > 100 µM (inactive) | 47 µM (inactive) | 47.3 µM (inactive) | > 100 µM (inactive) | > 100 µM (inactive) | > 100 µM (inactive) | > 100 µM (inactive) | > 100 µM (inactive) | > 100 µM (inactive) | > 100 µM (inactive) | > 100 µM (inactive) | > 100 µM (inactive) | > 100 µM (inactive) | > 100 | > 100 µM (inactive) |
